Measured values taken from patent US20060194782A1, “Pharmacologically active imidazo[4,5-c] pyridines” (Altana Pharma AG, priority 2003, published 2006).

Columns and labels:
[1] = system: pentagastrin-stimulated acid secretion of the perfused rat stomach; experiment: Pentagastrin-stimulated acid secretion of the perfused rat stomach after intraduodenal administration; type: in vivo; settings: anesthetized CD rat, dose 1.0 μmol/kg i.d.
Excerpt: Testing of the Secretion on the Perfused Rat Stomach
In Table A which follows, the influence of the compounds of the formula 1 according to aspect 3 of the invention on the pentagastrin-stimulated acid secretion of the perfused rat stomach after intraduodenal
The abdomen of anesthetized rats(CD rat, female, 200-250 g; 1.5 g/kg i.m. urethane) was opened after tracheotomy by a median upper abdominal incision and a PVC catheter was fixed transorally in the esophagus and another via the pylorus such that the ends of the tubes just projected into the gastric lumen. The catheter leading from the pylorus led outward into the right abdominal wall through a side opening.
After thorough rinsing (about 50-100 ml), warm (37° C.) physiological NaCl solution was continuously passed through the stomach (0.5 ml/min, pH 6.8-6.9; Braun-Unita I). The pH (pH meter 632, glass electrode EA 147; φ=5 mm, Metrohm) and, by titration with a freshly prepared 0.01 N NaOH solution to pH 7 (Dosimat 665 Metrohm), the secreted HCl were determined in the effluent in each case collected at an interval of 15 minutes.
The gastric secretion was stimulated by continuous infusion of 1 μg/kg (=1.65 ml/h) of i.v. pentagastrin (left femoral vein) about 30 min after the end of the operation (i.e. after determination of 2 preliminary fractions). The substances to be tested were administered intraduodenally in a 2.5 ml/kg liquid volume 60 min after the start of the continuous pentagastrin infusion.
The body temperature of the animals was kept at a constant 37.8-38° C. by infrared irradiation and heat pads (automatic, stepless control by means of a rectal temperature sensor).

Work on `CCc1cccc(C)c1NCc1nccc2c1nc(C)n2C` [Example 1, (1,2-Dimethyl-1H-imidazo[4,5-c]pyridin-4-ylmethyl)-(2-ethyl-6-methyl-phenyl)-amine] yielded a melting point of 141 to 142 °C.

In the case of `CCc1cccc(C)c1CNc1nc(C(=O)N(C)C)cc2c1nc(C)n2C` [Example 2, 4-(2-Ethyl-6-methyl-benzylamino)-1,2-dimethyl-1H-imidazo[4,5-c]pyridine-6-carboxylic Acid Dimethylamide], the “Inhibition of acid secretion” value [1] is reported as greater than 30% and the melting point is reported as 204 to 206 °C.

Work on `CCc1cccc(C)c1CNc1nc(C(=O)O)cc2c1nc(C)n2C` [Example 13, 4-(2-Ethyl-6-methyl-benzylamino)-1,2-dimethyl-1H-imidazo[4,5-c]pyridine-6-carboxylic Acid] yielded a melting point of 233 to 236 °C.

With `CCc1cccc(C)c1CNc1nc(C(=O)NC)cc2c1nc(C)n2C` [Example 4, 4-(2-Ethyl-6-methyl-benzylamino)-1,2-dimethyl-1H-imidazo[4,5-c]pyridine-6-carboxylic Acid Methylamide] the “Inhibition of acid secretion” value [1] was greater than 30% and the melting point was 157 to 160 °C.

`Cc1nc2c(OCc3ccccc3Cl)nccc2n1C` [Example 8, 4-(2-Chloro-benzyloxy)-1,2-dimethyl-1H-imidazo[4,5-c]pyridine] showed a melting point of 180 to 181 °C.

In the case of `CCc1cccc(C)c1CNc1nc(OCCOC)cc2c1nc(C)n2C` [Example 14, (2-Ethyl-6-methyl-benzyl)-[6-(2-methoxy-ethoxy)-1,2-dimethyl-1H-imidazo[4,5-c]pyridin-4-yl]-amine], the melting point is reported as 105 °C.

`Cc1nc2c(OC3CCc4ccccc43)nccc2n1C` (centres unmarked) [Example 10, 4-(Indan-1-yloxy)-1,2-dimethyl-1H-imidazo[4,5-c]pyridine] gave a melting point of 164 to 165 °C.

Work on `CCc1cccc(C)c1CNc1nc(OC)cc2c1nc(C)n2C` [Example 15, (2-Ethyl-6-methyl-benzyl)-(6-methoxy-1,2-dimethyl-1H-imidazo[4,5-c]pyridin-4-yl)-amine] yielded a melting point of 106 to 107 °C.

With `CCc1cccc(C)c1CNc1nc(C(=O)N(C)C)cc2[nH]c(C)nc12` [Example 16, 4-(2-Ethyl-6-methyl-benzylamino)-2-methyl-1H-imidazo[4,5-c]pyridine-6-carboxylic Acid Dimethyl-amide] the “Inhibition of acid secretion” value [1] was greater than 30% and the melting point was 207 to 208 °C.

Compound `Cc1nc2c(OCc3ccccc3)nccc2n1C` [Example 7, 4-Benzyloxy-1,2-dimethyl-1H-imidazo[4,5-c]pyridine] has a melting point of 115 to 116 °C.

With `CCOC(=O)c1cc2c(nc(C)n2C)c(NCc2c(C)cccc2CC)n1` [Example 12, 4-(2-Ethyl-6-methyl-benzylamino)-1,2-dimethyl-1H-imidazo[4,5-c]pyridine-6-carboxylic Acid Ethyl Ester] the melting point was > 111 °C (dec.).

In the case of `CCc1cccc(C)c1CNc1nc(C(N)=O)cc2c1nc(C)n2C` [Example 3, 4-(2-Ethyl-6-methyl-benzylamino)-1,2-dimethyl-1H-imidazo[4,5-c]pyridine-6-carboxylic Acid Amide], the “Inhibition of acid secretion” value [1] is reported as greater than 30% and the melting point is reported as 264 to 266 °C.

`CCc1cccc(C)c1CNc1nc(C(=O)NCCO)cc2c1nc(C)n2C` [Example 5, 4-(2-Ethyl-6-methyl-benzylamino)-1,2-dimethyl-1H-imidazo[4,5-c]pyridine-6-carboxylic Acid (2-Hydroxy-ethyl)-amide] gave a melting point of 208 to 209 °C.
